From patent US20170362590A1, “PHARMACEUTICAL COMPOSITIONS COMPRISING MICRORNA” (OREGON HEALTH & SCIENCE UNIVERSITY, priority 2016, published 2017)

Key:
[1] = tested on: ERK; assay: VEGF-dependent ERK phosphorylation (western blot); type: cell-based, human; conditions: HUVECs treated with VEGF (10 min)
[2] = tested on: HUVEC; assay: β-Gal senescence assay; type: cell-based, human; conditions: for senescence (β-galactosidase positive cells): 48 hours after transfection, relative to controls; for senescence phenotype in old HUVECs: high-passage HUVEC, β-galactosidase assay
Text: After this time cells were washed whit cold PBS and then stain for β-galactosidase activity following manufacture protocol (Senescence Cells Histochemical Staining Kit, Sigma).

[3] = tested on: telomerase activity in HUVEC; assay: Telomerase activity assay; type: cell-based, human; conditions: 48 hours of ectopic expression
Experimental: […] Cells were lysed and processed according to the manufacturer's instructions (Quantitative Telomerase Detection Kit, Allied Biotech). The telomerase activity in the cell extract was determined through its ability to synthesize telomeric repeats onto an oligonucleotide substrate. The resulting products were subsequently amplified using the polymerase chain reaction (PCR).

[4] = tested on: HUVEC; assay: 3-D angiogenic sprouting assay (fibrin bead); type: cell-based; conditions: 3D-fibrinogen assay, co-culture with human aortic smooth muscle cells
Experimental: Early passage HUVECs were coated on cytodex-3 (GE Healthcare) beads at a density of 10 million cells/40 μl beads and incubated in suspension for 3-4 hours with gentle mixing every hour. They were plated on TC treated 6 well dishes overnight and resuspended in a 2 mg/ml fibrin gel with 200,000 human smooth muscle cells. The gel was allowed to polymerize and complete EGM-2 media was added. Sprouts were visualized from days 3-4 via confocal imaging after overnight incubation with FITC labeled Ulex europaeus lectin (Vector labs). Immunofluorescence imaging was performed on a Yokogawa CSU-W1 spinning disk confocal microscope with 20 0.45 Plan Fluor objective (Nikon).

[5] = tested on: MRE11a, RAD50, and NBN mRNAs; assay: miR-TRAP/RISC TRAP assay; type: cell-based; conditions: 293 T cells, 24 hours
Experimental: 293 T cells were co-transfected with a plasmid coding for a flag-tagged dominant negative […] mutant (Clontech) along with a control mimic, miR-99b or miR-494 mimic according to kit instructions. Twenty-four hours later the RNA protein complexes were crosslinked and the RISC complex was immunoprecipitated using an anti-FLAG antibody and RNA was isolated for quantitative real-time PCR of target genes. The fold enrichment was calculated using pre and post IP controls as well as normalization to the control mimic pull-downs.

[6] = tested on: VEGF-early gene signature; assay: VEGF-early response gene expression; type: cell-based, human; conditions: HUVEC, VEGF 50 ng/ml
Experimental: HUVECs were transfected for a total of 48 hours. At 24 hours cells were starved overnight and then treated 3 hours with VEGF (50 ng/ml). Graphs depict mean mRNA levels+SEM.
(§1) Total RNA and microRNA were isolated using miRVana microRNA isolation kit (Ambion). Reverse transcription was performed using TaqMan™ Advanced cDNA Synthesis Kit (Life Tech) according to the manufacture instructions. RT-PCR was performed using multiplexed TaqMan primers (Applied Biosystems). The relative quantification of gene expression was determined using the 2-DDCtmethod. Using this method, we obtained the fold changes in gene expression normalized to an internal control gene, GAPDH or U6 snRNA, respectively. A DNA damage array (LifeTech) was used for targeting analysis and a Human Cellular Senescence array (SA Biosciences) was used for senescence phenotype profiling.

[7] = tested on: CD44; assay: CD44 expression (Human Senescence gene array); type: cell-based; conditions: HUVEC
Experimental: as §1
CD44 expression was analyzed by flow cytometry in HUVECs transfected with miR-494 for 48 hours. Cells were washed in PBS and tripsinazed. Cells were incubated in blocking solution (0.5% BSA/10% goat serum) for 30 min and 1 hour in primary antibody-PEcy7 conjugated (CD44, BD, 560533) prepared in blocking solution. Then cells were washed in PBS 3×. Cells were analyzed in a CANTOII equipment.

[8] = tested on: MRE11a, RAD50 and NBN; assay: Target validation in HUVEC (Western blot, qPCR); type: cell-based, human; conditions: qPCR and immunofluorescence
Experimental: After treatment, cells were washed in phosphate-buffered saline (PBS) and prepared in RIPA lysis buffer (Sigma) supplemented with Complete Protease inhibitor cocktail (ROCHE) and Phosphatase inhibitors cocktail 2 and 3 (Sigma). Cells were harvested by scraping, and proteins were analyzed by Western blot. Equivalent amounts of protein were loaded on a 4-12% gradient SDS-polyacrylamide gel (BioRAD) and transferred for 30 min to a TransBlot turbo (BioRAD) nitrocellulose membrane. Membranes were blocked in 5% milk or 3% BSA and incubated with antibodies as indicated: Mre11a (Cell Signaling, 4847, 1:1000), RAD50 (Cell Signaling, 3427, 1:1000), NBS1 (Cell Signaling, 14956, 1:500), p-ATM (Cell Signaling, 4526, 1:500), H2AX (Abcam 11174, 1:500), p21 (Cell Signaling, 2947, 1:1000), P-Rb (Cell Signaling, 9301, 1:500), ERK1/2 (Cell Signaling, 9102, 1:1000), P-ERK1/2 (9101, 1:1000). β-actin (Sigma, A5316, 1:10,000 1 h RT) was used as housekeeping controls for the total levels of protein loaded. Membranes were washed in TBST and incubated with secondary antibodies from Licor Biosciences were used goat anti mouse 925-68020 (1:15,000) and goat anti rabbit 925-32211 (1:15,000). […]
Total RNA and microRNA were isolated using miRVana microRNA isolation kit (Ambion). […] The relative quantification of gene expression was determined using the 2-DDCtmethod. […]

[9] = tested on: HUVEC; assay: HUVEC cell proliferation assay; type: cell-based, human; conditions: for proliferation relative to controls: HUVEC, overexpression for 48 hours; for proliferation in old HUVECs: high-passage HUVEC
[10] = tested on: 3'-UTRs of MRE11a, RAD50, and NBN; assay: 3'-UTR luciferase reporter assay in HEK-293T cells; type: cell-based, human; conditions: 24 hours cotransfection
Experimental: To determine targets of miR-99b and miR-494, the RNAs were ectopically expressed in HUVECs. Targets were analyzed using a DNA damage array 24 hours after transfection. Three common targets for miR-99b and miR-494 were identified: MRE11a, RAD50 and NBN. These three proteins form the MRN complex which is involved in homologous repair and non-homologous end joining. mRNA targets of miR-494 and miR-99b were also assessed using a miR-TRAP assay. […] Finally, the 3′-UTRs of MRE11a, RAD50, and NBN were cloned into luciferase reporter vectors. The luciferase vectors were contrasfected with miR-494 and miR99b into HEK-293T cells for 24 hours.
MRE11a Luciferase-3-UTR plasmid was purchased from SwitchGear Genomics. RAD50 and NBN luciferase constructs were purchased as pmiR-REPORT vector (Ambion). Luciferase assay reagents were purchased from Switch Gear Genomics and Promega.
Cells were transfected at 50-60% confluence using standard forward transfection protocols using RNAimax reagent (Life Technologies) for miRs/siRNAs and Lipofectamine 2000 for plasmid or plasmid RNA dual transfections. Typically 50 nM RNA and […] plasmid DNA were used for transfections. Target protectors were transfected at a concentration of 50 nM or equivalent to the miR amounts.

[11] = tested on: p21; assay: Western blot of p21 in HUVEC; type: cell-based, human; conditions: HUVEC expressing the miRNAs
Experimental: After treatment, cells were washed in phosphate-buffered saline (PBS) and prepared in RIPA lysis buffer (Sigma) supplemented with Complete Protease inhibitor cocktail (ROCHE) and Phosphatase inhibitors cocktail 2 and 3 (Sigma). Cells were harvested by scraping, and proteins were analyzed by Western blot. Equivalent amounts of protein were loaded on a 4-12% gradient SDS-polyacrylamide gel (BioRAD) and transferred for 30 min to a TransBlot turbo (BioRAD) nitrocellulose membrane. Membranes were blocked in 5% milk or 3% BSA and incubated with antibodies as indicated: Mre11a (Cell Signaling, 4847, 1:1000), RAD50 (Cell Signaling, 3427, 1:1000), NBS1 (Cell Signaling, 14956, 1:500), p-ATM (Cell Signaling, 4526, 1:500), H2AX (Abcam 11174, 1:500), p21 (Cell Signaling, 2947, 1:1000), P-Rb (Cell Signaling, 9301, 1:500), ERK1/2 (Cell Signaling, 9102, 1:1000), P-ERK1/2 (9101, 1:1000). β-actin (Sigma, A5316, 1:10,000 1 h RT) was used as housekeeping controls for the total levels of protein loaded. Membranes were washed in TBST and incubated with secondary antibodies from Licor Biosciences were used goat anti mouse 925-68020 (1:15,000) and goat anti rabbit 925-32211 (1:15,000). Blots were scanned on the Licor Odyssey scanner according to manufacturer's instructions.

[12] = tested on: HUVEC; assay: HUVEC apoptosis; type: cell-based, human; conditions: overexpression for 48 hours
[13] = tested on: murine 4T1 tumors; assay: Orthotopic 4T1 tumor growth; type: in vivo; conditions: implanted orthotopically in Balb/C mice
Text: FIG. 5C is a graph of 4T1 tumor weights on day 21 after orthotopic mammary fat pad implantation of either control or miR-494-3p transfected tumors. N=8 mice per group and * indicates P<0.05.

[14] = tested on: Matrigel plugs in nu/nu mice; assay: Matrigel plug angiogenesis assay in vivo
Experimental: as §1
In some experiments, CD31a and Mre11a were visualized using immunofluorescence staining from OCT sections of tumor tissue. Slides were fixed with 4% PFA and stained overnight for CD31, Mre11a, or ASMC. Imaging was performed on a Nikon Spectral C1 confocal microscope (Nikon C1si with EZC1 acquisition software, Nikon Instruments) with Plan Apo 10×/0.45 air, Plan Apo 20×/0.75 air, and Plan Apo 60×/1.40 oil objective lenses (Nikon). Some immunofluorescence imaging was performed on a Yokogawa CSU-W1 spinning disk confocal microscope with 20 0.45 Plan Fluor objective (Nikon). All images were taken with a channel series. Images were analysed with Image J software for quantitation.
Immune-compromised 8-10 week old female nu/nu mice purchased from Jackson Labs. Growth factor reduced Matrigel (BD) with 400 ng ml 1 recombinant human bFGF (Millipore) was injected subcutaneously in nu/nu mice. Mice were injected i.v with 7C1-nanoparticles containing miR-494 or control miR (0.7 mg/kg, i.v) 3 or 4 days after plugs were implanted. At day 7 mice were harvest and lysed to obtained RNA or frozen in OCT for tissue staining.

[15] = tested on: breast cancer cell; assay: Breast cancer cell proliferation in 2D and 3D assays; type: cell-based; conditions: ectopic expression

| Compound | phosphorylation of ERK [1] | telomerase activity [3] | sprouting angiogenesis [4] | senescence (β-galactosidase positive cells) ([2]; HUVEC) | enrichment of target mRNAs in RISC pulldown relative to controls [5] | expression of CD44, a marker of senescence [7] | protein expression of target mRNAs (MRE11a, RAD50, NBN) [8] | proliferation relative to controls [9] | proliferation in old HUVECs [9] | luciferase expression from 3'-UTR reporter vectors [10] | expression of cell cycle regulator p21 [11] | senescence phenotype in old HUVECs [2] | apoptosis [12] | other results |
| --- | --- | --- | --- | --- | --- | --- | --- | --- | --- | --- | --- | --- | --- | --- |
| N=C1NC(=O)/C(=C/c2ccc(O)cc2)S1 [Mirin-1, reference compound] | decreased ERK phosphorylation | – | – | – | – | – | – | – | – | – | – | – | – | senescence ([2]; HUVEC, 50 uM, after 24 hours): induce senescence |
| miR-21-3p: Human miR-21-3p (SEQ ID NO: 2), used as miR mimic (sense CAACACCAGUCGAUGGGCUGU; listed as RNA, chemistry not given here; listed as Homo sapiens) | – | impairing telomerase function | inhibit sprouting angiogenesis | lead to endothelial senescence | – | – | – | – | – | – | – | – | – | – |
| miR-99b: Human miR-99b-5p (SEQ ID NO: 3), used as miR mimic (sense CACCCGUAGAACCGACCUUGCG; listed as RNA, chemistry not given here; listed as Homo sapiens) | lower rate of phosphorylation of ERK | Impaired telomerase activity | inhibited sprouting angiogenesis | higher number of β-galactosidase positive cells | only MRE11a was enriched | induced expression of CD44 | Blocking of protein expression | less proliferation | without dramatically changing proliferation | Significantly less luciferase expression | greater expression | restored a senescence phenotype | no effect on apoptosis | specific-VEGF-early gene signature [6]: block a specific-VEGF-early gene signature; telomerase activity ([3]; listed as miR-99b-5p): impairing telomerase function; sprouting angiogenesis ([4]; listed as miR-99b-5p): inhibit sprouting angiogenesis; senescence (β-galactosidase positive cells) ([2]; HUVEC, listed as miR-99b-5p): lead to endothelial senescence |
| miR-494: Human miR-494-3p (SEQ ID NO: 1), used as miR mimic; in vivo delivered in 7C1 nanoparticles (sense UGAAACAUACACGGGAAACCUC; delivered in vivo in 7C1 nanoparticles, further chemistry not given here; listed as Homo sapiens) | – | Impaired telomerase activity | inhibited sprouting angiogenesis | higher number of β-galactosidase positive cells | enrichment of all of MRE11a, RAD50, and NBN | induced expression of CD44 | Blocking of protein expression | less proliferation | without dramatically changing proliferation | Significantly less luciferase expression | greater expression | restored a senescence phenotype | no effect on apoptosis | growth of 4T1 tumors [13]: decreased the growth; Pecam1 mRNA expression in plugs relative to controls ([14]; Matrigel plugs, 7C1 nanoparticles): lower expression; less CD31 staining relative to controls ([14]; Matrigel plugs, miR delivered with endothelial targeted nanoparticle 7C1, 0.7 mg/kg i.v.): 50%; Mre11a mRNA expression in plugs ([14]; RNA isolated from Matrigel plugs, 7C1 nanoparticles): significantly less Mre11a expression; breast cancer cell proliferation [15]: diminished breast cancer cell proliferation; telomerase activity ([3]; listed as miR-494-3p): impairing telomerase function; sprouting angiogenesis ([4]; listed as miR-494-3p): inhibit sprouting angiogenesis; senescence (β-galactosidase positive cells) ([2]; HUVEC, listed as miR-494-3p): lead to endothelial senescence |
